Assay results: US8569339B2, “Soluble guanylate cyclase activators” (Boehringer Ingelheim International GmbH, priority 2011, dated 2013)
≈ marks a conversion by molar mass, not a printed value.

Columns and labels:
[1] = biological target: T1, Recombinant human soluble guanylate cyclase (sGC) (Homo sapiens, UniProt Q02153); assay: Molecular assay: activation of heme-free sGC, cGMP detection (CisBio kit); type: biochemical; conditions: 300 pM heme-free sGC, 37° C., 60 minutes, cGMP formation
T1 construct: histidine tag (C); made in house; host or cells: Sf9 insect cells (baculovirus coinfection)
T1 sequence (Q02108 whole entry partner): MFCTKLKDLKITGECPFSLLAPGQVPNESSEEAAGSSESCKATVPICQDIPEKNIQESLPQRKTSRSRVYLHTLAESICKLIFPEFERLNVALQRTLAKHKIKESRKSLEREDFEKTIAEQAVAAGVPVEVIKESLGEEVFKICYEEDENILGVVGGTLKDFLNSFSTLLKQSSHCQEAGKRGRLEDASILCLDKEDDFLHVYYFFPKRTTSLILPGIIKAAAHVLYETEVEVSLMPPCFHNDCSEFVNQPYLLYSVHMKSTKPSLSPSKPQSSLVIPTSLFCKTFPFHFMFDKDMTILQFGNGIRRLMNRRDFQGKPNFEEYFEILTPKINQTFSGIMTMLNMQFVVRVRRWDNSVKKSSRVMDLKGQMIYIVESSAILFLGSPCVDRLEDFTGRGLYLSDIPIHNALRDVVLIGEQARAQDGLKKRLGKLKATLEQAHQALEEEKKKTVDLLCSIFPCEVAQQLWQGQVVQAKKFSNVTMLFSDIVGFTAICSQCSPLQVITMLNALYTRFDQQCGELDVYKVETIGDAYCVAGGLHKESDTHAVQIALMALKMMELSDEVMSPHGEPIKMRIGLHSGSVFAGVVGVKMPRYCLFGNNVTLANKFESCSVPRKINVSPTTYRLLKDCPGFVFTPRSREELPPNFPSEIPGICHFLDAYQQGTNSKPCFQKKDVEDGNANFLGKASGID
T1 sequence (Q02153 whole entry): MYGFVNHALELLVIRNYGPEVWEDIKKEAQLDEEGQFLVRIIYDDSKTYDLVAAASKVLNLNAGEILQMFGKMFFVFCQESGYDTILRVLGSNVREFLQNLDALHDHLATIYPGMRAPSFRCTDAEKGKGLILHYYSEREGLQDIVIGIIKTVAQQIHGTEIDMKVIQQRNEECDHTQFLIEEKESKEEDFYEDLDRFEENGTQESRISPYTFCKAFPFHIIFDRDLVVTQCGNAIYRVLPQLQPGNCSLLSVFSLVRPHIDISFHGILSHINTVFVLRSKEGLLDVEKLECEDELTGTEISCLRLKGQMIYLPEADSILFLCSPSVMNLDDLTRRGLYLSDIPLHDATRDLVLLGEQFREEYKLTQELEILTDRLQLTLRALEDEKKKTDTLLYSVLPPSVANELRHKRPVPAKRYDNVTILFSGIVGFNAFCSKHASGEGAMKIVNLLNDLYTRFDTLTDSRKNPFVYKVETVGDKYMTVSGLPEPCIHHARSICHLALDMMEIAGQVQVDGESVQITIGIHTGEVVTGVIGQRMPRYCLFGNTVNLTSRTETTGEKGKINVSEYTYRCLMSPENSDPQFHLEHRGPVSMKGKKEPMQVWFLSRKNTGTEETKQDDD
In short: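 Heme-free human α1/β1 sGC (His-tagged, Sf9-expressed, Tween 20-treated) at 300 pM incubated with compound in pH 6.8 MOPS buffer with 50 nM GTP, IBMX, 1% DMSO, 60 min at 37 °C. cGMP quantified by HTRF against a calibration curve; EC50 from combined undiluted and 80-fold diluted readings.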

[2] = Assessment of solubility (HT solubility, pION, UV); type: physicochemical; conditions: incubated 16-19 hours, 1.0% DMSO, 100 uM; for solubility kinetic: pH 4.5 buffer (pION system solution), pH 4.5, aqueous buffer, kinetic from dmso stock, pH 4.5 buffer, read-out: Sol pH 4.5; for Sol pH 7.4: pH 7.4 buffer
In short: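 Compounds were taken from 10 mM DMSO stocks into pH 4.5 or pH 7.4 buffer at 100 uM final (1.0% DMSO), run in duplicate, and incubated sealed for 16-19 h. Filtrates were diluted with N-propanol and read by UV at 250-498 nm against blank and reference spectra, […].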

Compound | EC50 [1] | solubility kinetic [2] | Sol pH 7.4 [2]
Cc1cccc(-c2cccc(-c3onc(C(=O)O)c3C)n2)c1OCc1ccc2c(c1)CCN(C1CCOCC1)C2 [Compound 86, 4-methyl-5-[6-[3-methyl-2-[(2-tetrahydropyran-4-yl-3,4-dihydro-1H-isoquinolin-6-yl)methoxy]phenyl]-2-pyridyl]isoxazole-3-carboxylic acid] | 0.775 µM | > 65 µg/mL | >65 μg/mL
Cc1cccc(-c2cccc(-c3c(C)c(C(=O)O)nn3CC(F)(F)F)n2)c1OCc1ccc2c(c1)CCN(C1CCOCC1)C2 [Compound 87] | 0.18 µM | 17.3 µg/mL (≈ 27.9 µM) | 14.1 μg/mL
Cc1cccc(-c2cccc(-c3c(C)c(C(=O)O)nn3C3CCOCC3)n2)c1OCc1ccc2c(c1)CCN(C1CCOCC1)C2 [Compound 89] | 0.7 µM | 51.5 µg/mL (≈ 82.7 µM) | >62 μg/mL

These reach a lower EC50 [1]. Values come first.

EC50 [1] | solubility kinetic [2] | Sol pH 7.4 [2] | Compound
0.16 µM | > 69 µg/mL | >69 μg/mL | Cc1cccc(-c2cccc(-c3c(C)c(C(=O)O)nn3C3CC3)n2)c1OCc1ccc2c(c1)CCN(C1CCOCC1)C2 [Compound 91]
0.094 µM | > 60 µg/mL | >60 μg/mL | Cc1cccc(-c2cccc(-c3c(C)c(C(=O)O)nn3CCC(=O)O)n2)c1OCc1ccc2c(c1)CCN(C1CCOCC1)C2 [Compound 85]
0.069 µM | > 70 µg/mL | >70 μg/mL | Cc1cccc(-c2cccc(-c3c(C)c(C(=O)O)nn3C(C)(C)C)n2)c1OCc1ccc2c(c1)CCN(C1CCOCC1)C2 [Compound 84]
0.015 µM | 49 µg/mL (≈ 80 µM) | 50.2 μg/mL | Cc1cccc(-c2cccc(-c3c(C)c(C(=O)O)nn3C3CC3)n2)c1OCc1ccc2c(c1)CCN(C1CCC(F)(F)CC1)C2 [Compound 90]
